Experimental data: patent US9808470B2, “Estrogenic components for use in the treatment of neurological disorders” (UNIVERSITE DE LIEGE, priority 2012, dated 2017)
Where “and” joins values, the source holds several entries; their conditions need not be identical. Equal entries are not always repeated.

Tests used:
[1] = Ex.3 neuroprotective HIE rat model: body weight; format: in vivo
Protocol: (§1) Newborn rat pups were assigned to one of the following 6 groups from postnatal day 4: Sham group (n=24), Vehicle group (n=14), E4 1 mg/kg/per day group (n=11), E4 5 mg/kg/per day group (n=14), E4 10 mg/kg/per day group (n=14), or E4 50 mg/kg/per day group (n=19). From postnatal day 4, rat pups were intraperitoneally injected either vehicle (Vehicle group) or E4 (1, 5, 10, or 50 mg/kg/per day in accordance to the E4 group assignment) or neither vehicle nor E4 (Sham group). At day 7, 30 minutes after last injection, animals were anesthetized with isoflurane (induction, 3.0%; maintenance, 1.5%), and the rat pups from Vehicle and E4 groups passed through surgery encompassing left common carotid artery double ligation and cut. After the procedure, the pups were returned to their dams and were allowed to recover for 1 hour. The pups were then placed in the humidified hypoxic in vivo cabinet (CoyLab, Grass Lake, Mich., USA). Hypoxia was produced by the inhalation of 11%-8% of oxygen balanced by nitrogen at decreased concentration of oxygen for 20 minutes, followed by inhalation of 8% oxygen and 92% nitrogen at constant concentration for 35 minutes. All the manipulations were performed at 37° C. The Sham group went through similar procedures without left common carotid artery ligation followed by hypoxia nor injection. Rat pups recovered with their dams and reared normally until being sacrificed at postnatal day 14.
To monitor the post-operative well-being of the rat pups due to the performed manipulations and estetrol pre-treatment, the body weight was monitored from postnatal day 7 to day 14 inclusive.

[2] = test system: intact cells in hippocampus and cortex; test: Ex.3 neuroprotective HIE rat model: intact cell counting; format: in vivo
Protocol: Paraformaldehyde-fixed paraffin embedded samples of the removed brains were coronally sectioned at the same level of the hippocampus region in accordance to the Paxinos rat brain atlas (Paxinos and Watson 2007. In: The rat brain in stereotaxic coordinates, 6th edition). Thickness of sections was 5 μm. Hematoxylin-eosin staining was performed. Briefly, sections were deparaffinized in xylene and rehydrated in graded ethanol concentrations before staining. Slides were stained with hematoxylin, rinsed for a few seconds in water, then placed in 1% eosin and washed, dehydrated, and coverslipped.
Intact cell counting was performed on hematoxylin-eosin-stained sections of the rat pups brains at magnification 400× in 3 fields of the respective brain area. Countings were performed in cortex and hippocampus (regions: dentate gyrus (DG), subgranular zone (SGZ), cornu ammonis (CA1, CA2/CA3)). The sections were analyzed with the aid of a microscope (Olympus BX51, Olympus, Tokyo, Japan), an image scanner (DotSlide Digital Virtual Microscopy, Olympus, Germany) and ImageJ software (NIH, US).
Intact cells are uninjured. Injured cells are characterized by a pale eosinophilic staining along with non-uniform nuclear densities-shrunken, condensed, or pale and enlarged.
as §1

S100B = test: Ex.3 neuroprotective HIE rat model: blood serum S100B ELISA; format: in vivo; conditions: PND14
Protocol: Blood was withdrawn, centrifuged and the serum samples were stored at −80° C.
ELISAs for detecting the brain damage markers S100B protein (Catalog# CSB-E08066r, Cusabio Biotech Co., LTD, China), and glial fibrillary acidic protein (GFAP) (Catalog# E90068Ra, Uscn Life sciences Inc., China) in blood serum samples were performed according to the manufacturers' recommendations.
as §1, with “Hypoxia was produced by the inhalation of 11%-8% of oxygen balanced by nitrogen at decreased concentration of oxygen for 20 minutes, followed by inhalation of 8% oxygen and 92% nitrogen at constant concentration for 35 minutes. All the manipulations were performed at 37° C. The Sham group went through similar procedures without left common carotid artery ligation followed by hypoxia nor injection. Rat pups recovered with their dams and reared normally until being sacrificed at postnatal day 14.” left out

[3] = Ex.4 therapeutic HIE rat model: body weight; format: in vivo; conditions: PND14
Protocol: To study the therapeutic effect of estetrol, newborn rat pups were assigned to one of the following 6 groups at postnatal day 7: sham group (n=29), vehicle group (n=20), 1 mg/kg E4 group (n=16), 5 mg/kg E4 group (n=19), 10 mg/kg day E4 (n=17) and 50 mg/kg day E4 group (n=15). At postnatal day 7 animals were anesthetized with isoflurane (induction, 3.0%; maintenance, 1.5%), and the rat pups from vehicle and E4 groups passed through surgery encompassing left common carotid artery double ligation and cut. After surgery, the pups were returned to their dams and allowed to recover for 1 hour. The pups were then placed in a humidified hypoxic in vivo cabinet (CoyLab). Hypoxia was produced by the inhalation of 11%-8% of oxygen balanced by nitrogen at decreased concentration of oxygen for 20 minutes, followed by inhalation of 8% oxygen and 92% nitrogen at constant concentration for 35 minutes. All the manipulations were performed at 37° C.
Upon retrieval from the hypoxia chamber the rat pups were injected intraperitoneally either by vehicle (vehicle group) or by E4 (1 mg/kg, 5 mg/kg, 10 mg/kg or 50 mg/kg) in accordance to the group assignment. The animals from the sham group went through similar procedures but proceeded neither left common carotid artery ligation and cut followed by hypoxia nor vehicle or estetrol administration. Rat pups recovered with their dams until being sacrificed at postnatal day 14.
To evaluate the post-operative well-being of rat pups due to the performed manipulations and estetrol treatment, the post-operative body weight was measured at postnatal days 7 and 14.

[4] = octanol-water; depending on experimental settings; listed as estetrol; cited from earlier work

With `C[C@]12CC[C@@H]3c4ccc(O)cc4CC[C@H]3[C@@H]1[C@@H](O)[C@@H](O)[C@@H]2O` [E4, 1,3,5(10)-estratrien-3,15α,16α,17β-tetrol] as the compound, how does the body weight ([1]; 1 mg/kg ip PND4-7 before HI, PND 10, 11 and 12, vs vehicle) read?
The body weight was “significantly higher body weight than the vehicle group”.

What about the body weight ([1]; 1 mg/kg ip PND4-7 before HI, PND 14, vs vehicle) of the same compound?
Its body weight is “significantly higher body weight than the vehicle group”.

And the body weight ([1]; 5 mg/kg ip PND4-7 before HI, PND 8, 9, 10, 12, vs sham)?
The body weight was “sham operated animals body weight was significantly higher”.

And the body weight ([1]; 5 mg/kg ip PND4-7 before HI, PND 14, vs vehicle)?
The body weight was “significantly higher body weight than the vehicle group”.

And the body weight ([1]; 10 mg/kg ip PND4-7 before HI, PND 9, vs vehicle)?
Its body weight is “significantly higher body weight than the vehicle group”.

And the body weight ([1]; 10 mg/kg ip PND4-7 before HI, PND 10, 11 and 12, vs vehicle)?
The body weight was “significantly higher body weight than the vehicle group”.

What about the body weight ([1]; 10 mg/kg ip PND4-7 before HI, PND 14, vs vehicle) of the same compound?
Its body weight is “significantly higher body weight than the vehicle group”.

And the body weight ([1]; 50 mg/kg ip PND4-7 before HI, PND 8, 9, 10, 12, vs sham)?
The body weight was “sham operated animals body weight was significantly higher”.

And the body weight ([1]; 50 mg/kg ip PND4-7 before HI, PND 11, 13, 14, vs sham)?
The body weight was “sham operated animals had significantly higher body weight”.

And the body weight ([1]; estetrol pre-treated (1, 5, 10, 50 mg/kg) ip PND4-7 before HI, PND 8 and 13, vs vehicle)?
Its body weight is “significantly higher post-operative body weight than the vehicle pre-treated animals”.

What about the “number of intact cells per visual field” value ([2]; 1 mg/kg E4 ip PND4-7 before HI, CA1) of the same compound?
The value was 43.2±2.435.

What about the “number of intact cells per visual field” value ([2]; 1 mg/kg E4 ip PND4-7 before HI, CA2/CA3) of the same compound?
Its value is 32.8±2.808.

And the “number of intact cells per visual field” value ([2]; 1 mg/kg E4 ip PND4-7 before HI, SGZ)?
The value was 35.6±2.75.

And the “number of intact cells per visual field” value ([2]; 5 mg/kg E4 ip PND4-7 before HI, DG)?
Its value is 121.0±8.098.

And the “number of intact cells per visual field” value ([2]; 5 mg/kg E4 ip PND4-7 before HI, SGZ)?
Its value is 42.846±3.884.

What about the “number of intact cells per visual field” value ([2]; 10 mg/kg E4 ip PND4-7 before HI, CA1) of the same compound?
Its value is 57.4±4.566.

What about the “number of intact cells per visual field” value ([2]; 10 mg/kg E4 ip PND4-7 before HI, SGZ) of the same compound?
The value was 47.6±4.672.

What about the “number of intact cells per visual field” value ([2]; 50 mg/kg E4 ip PND4-7 before HI, CA2/CA3) of the same compound?
Its value is 53.0±4.7.

What about the “number of intact cells per visual field” value ([2]; 50 mg/kg E4 ip PND4-7 before HI, SGZ) of the same compound?
Its value is 30.714±3.615.

What about the “number of intact cells per visual field” value ([2]; 50 mg/kg E4 ip PND4-7 before HI, cortex) of the same compound?
The value was 76.286±3.962.

What about the “concentration of S100B in blood serum” value (S100B; 10 mg/kg E4 ip PND4-7 before HI, vs sham, 5 mg/kg E4 and 50 mg/kg E4) of the same compound?
Its value is “significantly higher”.

What about the “concentration of S100B in blood serum” value (S100B; 50 mg/kg E4 ip PND4-7 before HI) of the same compound?
Its value is 361 ± 32.914 pg/mL.

What about the body weight ([3]; 1 mg/kg E4 single ip dose after HI, vs vehicle) of the same compound?
Its body weight is “significantly higher body weight than the vehicle group”.

What about the body weight ([3]; 5 mg/kg E4 single ip dose after HI, vs sham) of the same compound?
The body weight was “Sham operated animals showed significantly higher body weight”.

And the body weight ([3]; 5 mg/kg E4 single ip dose after HI, vs vehicle)?
Its body weight is “significantly higher body weight than the vehicle group”.

And the body weight ([3]; 10 mg/kg E4 single ip dose after HI, vs vehicle)?
The body weight was “significantly higher body weight than the vehicle group”.

And the body weight ([3]; 50 mg/kg E4 single ip dose after HI, vs vehicle)?
The body weight was “significantly higher body weight than the vehicle group”.

And the “Pow Log” value [4]?
Its value is 1.47 and 1.695.
